Reference: patent US20240368559A1, “METHOD OF PRODUCING BRAIN MICROVASCULAR ENDOTHELIAL-LIKE CELLS AND USE THEREOF” (PUBLIC UNIVERSITY CORPORATION NAGOYA CITY UNIVERSITY, priority 2021, published 2024)

How the values were obtained:
Assay type in all cases: cell-based
[1] = test system: iBMELCs (human iPS cell-derived brain microvascular endothelial-like cells); assay: Transendothelial electrical resistance (TEER) of iBMELCs induced to differentiate from iEPCs under varied medium and coating conditions; conditions: FIG. 6
Excerpt: iEPCs were induced to differentiate into iBMELCs under conditions where the coating agent and the additive added to the culture medium each varied. For coating the culture dish, as described above, two components of FBN and COL4, or three components obtained by adding any one component of VTN-N, LN221, LN411F, and LN511F to these two components, or four components obtained by adding LN411F and LN511F to these two components were used. As the third component, Laminin211, Laminin411, Laminin511, Agrin, Laminin-mix, Laminin-fragment mix, or hep ex was also used. […]
In order to examine the effect of cryopreserving iEPCs induced to differentiate from hiPSCs, the difference in transendothelial electrical resistance (TEER value) was compared between the presence and absence of freezing. A frozen group, in which iEPCs on day 14 of differentiation were frozen and thawed by the above-described method, and a unfrozen group of unfrozen iEPCs on day 14 of differentiation were induced to differentiate into iBMELCs by the above-described method while using the above-described differentiation-inducing condition A, and the TEER value was then measured. […] As used herein, the “maximum TEER value” means the maximum value among the TEER values measured on each day from day 2 after seeding to day 10 after seeding. […]

[2] = test system: iBPCs (human iPS cell-derived brain pericytes); assay: Brain pericyte marker gene expression in iBPCs by RT-q PCR; conditions: FIG. 20; 1 μM A 83-01 from day 8, iBPCs on day 12 of differentiation
Procedure: (§1) The above-described hiPSCs were used and induced to differentiate into iBPCs. Human iPS cells cultured in mTeSR plus medium were detached by using TrypLE Select, seeded on a VTN-N-coated culture dish at a density of 2×10^4 cells/cm^2, and then cultured in mTeSR plus medium containing 10 μM of Y-27632 (manufactured by Focus Biomolecules) for 24 hours. Thereafter, the cells were cultured for 1 day in modified DMEM/F12 medium (DMEM/F12 containing 0.1% chemically defined lipid concentrate, 0.1×insulin-transferrin-selenium (from Thermo Fisher Scientific), 2 mM GlutaMAX (from Sigma-Aldrich), […] 1-thioglycerol (from Sigma-Aldrich), 50 μg/mL of L-ascorbic acid phosphate magnesium salt n-hydrate, and 1×penicillin-streptomycin solution) supplemented with 5 μM CHIR-99021 (manufactured by Focus Biomolecules). Next, the cells were cultured for 1 day in modified DMEM/F12 medium containing 50 ng/mL of FGF2. […]
The expression level of each brain pericyte marker gene was analyzed by RT-q PCR. […] Relative expression levels of mRNA in X (+) and X (−) were determined while the expression level of mRNA in hPCs was set to 1 as a reference. […]

[3] = test system: iBPCs (human iPS cell-derived brain pericytes); assay: Brain pericyte marker protein expression in iBPCs by immunostaining; conditions: FIGS. 21 and 22; 1 μM A 83-01 in differentiation medium
Procedure: as §1, with “FGF2. Then, the cells were cultured for 2 days in EGM-2 medium (EGM-2 basal medium containing 2% FBS, 0.2 μg/mL hydrocortisone, 10 ng/mL FGF2, 20 ng/mL R3-IGF-1, 1 μg/mL ascorbic acid, 5 ng/mL hEGF, gentamicin, and amphotericin B) supplemented with 50 ng/mL PDGF-BB and 0.5 ng/mL VEGF. During this time, the medium was changed every day. On day 4, cells treated with 10 μM Y-27632 for 1 hour were dissociated using TrypLE Select, subcultured on a new VTN-N-coated culture dish at 1.25×10^4 cells/cm^2, and then induced to differentiate in an EGM-2 medium containing 50 ng/mL PDGF-BB. During this time, the medium was changed every day. On day 8 of differentiation, the cells were induced to differentiate in an EGM-2 medium containing 50 ng/mL PDGF-BB, and 1 μM A 83-01. During this time, the medium was changed every day.” for “FGF2.”
iBPCs (X(+) and X(−)) induced to differentiate from hiPSCs by the above method were analyzed by immunostaining in order to check the properties as BPCs. […] After that, the cells were washed three times with D-PBS (−), and then analyzed with an Operetta High-Content Imaging System (manufactured by PerkinElmer). […]

[4] = test system: iBPCs (human iPS cell-derived brain pericytes); assay: Cell scratch test of cell migration ability and proliferation potential of iBPCs; conditions: FIGS. 23 and 24
Procedure: as §1
Samples used were iBPCs (X (+)) induced to differentiate by adding A 83-01 in the above method and iBPCs (X (−)) induced to differentiate without adding A 83-01 in the above method. […] How the cells migrated 0, 12, and 24 hours of culture after cell scratching was checked by bright field observation, and the scratched area was calculated by Image J.

## Cc1cccc(-c2nn(C(=S)Nc3ccccc3)cc2-c2ccnc3ccccc23)n1 [A 83-01]
[1]; 1 μM vs 10 μM
  maximum TEER value (barrier function of iBMELCs) at content of 1 μM: high barrier function equivalent to the case of the content of 10 μM
[1]; 0.1, 1 or 10 μM in HE-SFM with 20 ng/mL FGF2 and 7.5% B27s, FBN+COL4 coating
  maximum TEER value (barrier function of iBMELCs), added vs not added: the barrier function of iBMELCs was higher than that when A 83-01 was not added
[2]
  relative mRNA expression level of α-SMA (human primary pericytes = 1): suppress the gene expression of α-SMA to the same extent as that of human primary pericytes
[3]
  expression of NG2 (relative average fluorescence intensity, X (−) = 1): did not significantly affect
  expression of PDGFR-β (relative average fluorescence intensity, X (−) = 1): did not significantly affect
  protein expression of α-SMA (relative average fluorescence intensity, X (−) = 1): suppress the protein expression of α-SMA
[4]; X (+) vs X (−)
  cell migration ability and proliferation potential of iBPCs: enhance the cell migration ability and proliferation potential of iBPCs
[4]; iBPCs (X (+)), 24 hours after cell scratching, number of samples 1
  relative distance of the cell scratch portion (0 hour = 1): 0
